ChEMBL document CHEMBL5537166, “PROTACs Targeting BRM (SMARCA2) Afford Selective In Vivo Degradation over BRG1 (SMARCA4) and Are Active in BRG1 Mutant Xenograft Tumor Models” (J Med Chem, 2024)
The source made the active and inactive calls. The calls are words filed in the database; no cut-off is given here.

What was measured:
NCI-H1944 = experiment: Antiproliferative activity against BRM-dependent human NCI-H1944 cells assessed as growth inhibition incubated for 7 days by celltiter glo 2.0 assay; assay type: functional; details: NCI-H1944, 168 h, time 7 day
Calu-6 = experiment: Antiproliferative activity against human Calu-6 cells assessed as growth inhibition incubated for 7 days by celltiter glo 2.0 assay; assay type: functional; details: Calu-6, 168 h, time 7 day
[1] = Plasma protein binding in mouse incubated for 15 mins by LC-MS/MS analysis; assay type: ADME, cell-free; details: read-out: PPB (converted)
[2] = Clearance in mouse at 1 mg/kg, iv measured upto 60 mins by LC-MS/MS analysis; assay type: ADME, organism-based; details: in vivo, 1 h
[3] = Half life in mouse at 1 mg/kg, iv measured upto 60 mins by LC-MS/MS analysis; assay type: ADME, organism-based; details: in vivo
[4] = Drug concentration in mouse plasma measured for 24 hrs; assay type: ADME, cell-free
[5] = Clearance in CD-1 mouse at 10 mg/kg, iv measured for 24 hrs; assay type: ADME, organism-based; details: in vivo
[6] = Clearance in CD-1 mouse at 30 mg/kg, iv measured for 24 hrs; assay type: ADME, organism-based; details: in vivo
[7] = Volume of distribution in CD-1 mouse at 10 mg/kg, iv measured for 24 hrs; assay type: ADME, organism-based; details: in vivo
[8] = Volume of distribution in CD-1 mouse at 30 mg/kg, iv measured for 24 hrs; assay type: ADME, organism-based; details: in vivo
[9] = Half life in CD-1 mouse at 10 mg/kg, iv measured for 24 hrs; assay type: ADME, organism-based; details: in vivo
[10] = Half life in CD-1 mouse at 30 mg/kg, iv measured for 24 hrs; assay type: ADME, organism-based; details: in vivo
[11] = Initial plasma concentration in CD-1 mouse at 10 mg/kg, iv measured for 24 hrs; assay type: ADME, organism-based
[12] = Initial plasma concentration in CD-1 mouse at 30 mg/kg, iv measured for 24 hrs; assay type: ADME, organism-based
[13] = AUClast in CD-1 mouse at 10 mg/kg, iv measured for 24 hrs; assay type: ADME, organism-based; details: in vivo
[14] = AUClast in CD-1 mouse at 30 mg/kg, iv measured for 24 hrs; assay type: ADME, organism-based; details: in vivo
[15] = Toxicity in CD-1 mouse xenografted with BRM-dependent human HCC2302 cells assessed as body weight loss at 10 mg/kg, ip administered once daily for 7 days; assay type: organism-based; details: in vivo, 168 h, time 7 day
[16] = Toxicity in CD-1 mouse xenografted with BRM-dependent human HCC2302 cells assessed as animal death at 10 mg/kg, ip administered once daily for 7 days; assay type: organism-based; details: in vivo, 168 h, time 7 day
Mus musculus [17] = experiment: In-vivo PROTAC activity at BRM/VHL in CD-1 mouse xenografted with human HCC2302 cells at 20 mg/kg, iv measured for 96 hrs; assay type: functional
Mus musculus [18] = experiment: In-vivo PROTAC activity at BRM/VHL in CD-1 mouse xenografted with Murine stromal cell line at 20 mg/kg, iv measured for 96 hrs; assay type: functional
[19] = Drug concentration in mouse tumor at 20 mg/kg, ip measured for 96 hrs; assay type: ADME, organism-based, Neoplasm; details: read-out: Ct
HCC2302 [20] = experiment: Antitumor activity against human BRM-dependent HCC2302 cells xenografted in CD-1 mouse assessed as tumor growth inhibition at 20 mg/kg, ip administered twice per week for 21 days; assay type: functional, organism-based; details: time 21.0 day
[21] = Toxicity in CD-1 mouse xenografted with BRM-dependent human HCC2302 cells assessed as body weight loss at 20 mg/kg, ip administered twice per week for 21 days; assay type: organism-based; details: in vivo, 504 h, time 21 day
HCC2302 [22] = experiment: Antitumor activity against human BRM-dependent HCC2302 cells xenografted in CD-1 mouse assessed as tumor growth inhibition at 10 mg/kg, iv administered twice per week for 21 days; assay type: functional, organism-based; details: time 21.0 day
HCC2302 [23] = experiment: Antitumor activity against human BRM-dependent HCC2302 cells xenografted in CD-1 mouse at 30 mg/kg, iv administered twice per week for 11 days; assay type: functional, organism-based; details: time 11.0 day
Mus musculus [24] = experiment: In-vivo PROTAC activity at BRM/VHL in CD-1 mouse xenografted with human HCC2302 cells assessed as reduction in BRM level in tumor at 10 mg/kg, iv administered twice weekly for 7 times for 21 days and measured after 24 hrs post dose by Western blot analysis; assay type: functional; parameters: scale not given: the % may be the effect or the level left; details: time 22 day
Mus musculus [25] = experiment: In-vivo PROTAC activity at BRM/VHL in CD-1 mouse xenografted with human HCC2302 cells assessed as reduction in BRM level in tumor at 20 mg/kg, iv administered twice weekly for 7 times for 21 days and measured after 24 hrs post dose by Western blot analysis; assay type: functional; parameters: scale not given: the % may be the effect or the level left; details: time 22 day
Mus musculus [26] = experiment: In-vivo PROTAC activity at BRM/VHL in CD-1 mouse xenografted with human HCC2302 cells assessed as reduction in BRM level in tumor at 30 mg/kg, iv administered 7 times and measured after 96 hrs by Western blot analysis; assay type: functional; parameters: scale not given: the % may be the effect or the level left
Mus musculus [27] = experiment: In-vivo PROTAC activity at BRG1 /VHL in CD-1 mouse xenografted with human HCC2302 cells assessed as reduction in BRG1 level in tumor at 10 mg/kg, iv administered twice weekly for 7 times for 21 days and measured after 24 hrs post dose by Western blot analysis; assay type: functional; parameters: scale not given: the % may be the effect or the level left; details: time 22 day
Mus musculus [28] = experiment: In-vivo PROTAC activity at BRG1 /VHL in CD-1 mouse xenografted with human HCC2302 cells assessed as reduction in BRG1 level in tumor at 20 mg/kg, iv administered twice weekly for 7 times for 21 days and measured after 24 hrs post dose by Western blot analysis; assay type: functional; parameters: scale not given: the % may be the effect or the level left; details: time 22 day
Mus musculus [29] = experiment: In-vivo PROTAC activity at BRG1 /VHL in CD-1 mouse xenografted with human HCC2302 cells assessed as reduction in BRG1 level in tumor at 30 mg/kg, iv administered 7 times and measured after 96 hrs by Western blot analysis; assay type: functional; parameters: scale not given: the % may be the effect or the level left
HCC2302 [30] = experiment: Antitumor activity against human BRM-dependent HCC2302 cells xenografted in CD-1 mouse assessed as suppression of KRT80 mRNA level at 10 mg/kg, iv administered twice weekly for 7 times for 21 days and measured after 24 hrs post dose; assay type: functional; details: time 22 day
HCC2302 [31] = experiment: Antitumor activity against human BRM-dependent HCC2302 cells xenografted in CD-1 mouse assessed as suppression of KRT80 mRNA level at 20 mg/kg, iv administered twice weekly for 7 times for 21 days and measured after 24 hrs post dose; assay type: functional; details: time 22 day
HCC2302 [32] = experiment: Antitumor activity against human BRM-dependent HCC2302 cells xenografted in CD-1 mouse assessed as suppression of KRT80 mRNA level at 30 mg/kg, iv administered 7 times and measured after 96 hrs; assay type: functional
HCC2302 [33] = experiment: Antitumor activity against human BRM-dependent HCC2302 cells xenografted in CD-1 mouse assessed as suppression of PLAU mRNA level at 10 mg/kg, iv administered twice weekly for 7 times for 21 days and measured after 24 hrs post dose; assay type: functional; details: time 22 day
HCC2302 [34] = experiment: Antitumor activity against human BRM-dependent HCC2302 cells xenografted in CD-1 mouse assessed as suppression of PLAU mRNA level at 20 mg/kg, iv administered twice weekly for 7 times for 21 days and measured after 24 hrs post dose; assay type: functional; details: time 22 day
HCC2302 [35] = experiment: Antitumor activity against human BRM-dependent HCC2302 cells xenografted in CD-1 mouse assessed as suppression of PLAU mRNA level at 30 mg/kg, iv administered 7 times and measured after 96 hrs; assay type: functional
HCC2302 [36] = experiment: Antitumor activity against human BRM-dependent HCC2302 cells xenografted in CD-1 mouse assessed as tumor growth inhibition at 10 mg/kg, iv administered twice weekly for 7 times for 21 days and measured after 24 hrs post dose; assay type: functional; details: HCC2302, 528 h, time 22 day, read-out: TGI
HCC2302 [37] = experiment: Antitumor activity against human BRM-dependent HCC2302 cells xenografted in CD-1 mouse assessed as tumor growth inhibition at 20 mg/kg, iv administered twice weekly for 7 times for 21 days and measured after 24 hrs post dose; assay type: functional; details: HCC2302, 528 h, time 22 day, read-out: TGI
HCC2302 [38] = experiment: Antitumor activity against human BRM-dependent HCC2302 cells xenografted in CD-1 mouse assessed as tumor growth inhibition at 30 mg/kg, iv administered 7 times and measured after 96 hrs; assay type: functional; details: read-out: TGI

Cc1ncsc1-c1ccc([C@H](C)NC(=O)[C@@H]2C[C@@H](O)CN2C(=O)[C@@H](c2cc(N3CCC(CN4CCC(O[C@H]5C[C@H](Oc6cc(N7C8CCC7CN(c7cc(-c9ccccc9O)nnc7N)C8)ccn6)C5)CC4)CC3)no2)C(C)C)cc1
GI50 (NCI-H1944): 0.58 nM | GI50 (Calu-6): 6.5 nM | fraction unbound at 0.25 h [1]: 0.048 | clearance [2]: 9.6 mL/min/kg | half-life [3]: 16 h | concentration at 24 h [4]: 71 nM | clearance [5]: 16 mL/min/kg | clearance [6]: 15 mL/min/kg | Vd [7]: 6.3 L/kg | Vd [8]: 8.7 L/kg | half-life [9]: 6.6 h | half-life [10]: 8.9 h | C0 at 24 h [11]: 12600 ng/mL | C0 at 24 h [12]: 58000 ng/mL | AUC(0-t) at 24 h [13]: 10200 ng·h/mL | AUC(0-t) at 24 h [14]: 30800 ng·h/mL | Activity [15]: Non-Toxic | Activity [16]: Non-Toxic | Activity (Mus musculus [17]): 82% | Activity (Mus musculus [18]): 22% | concentration at 96 h [19]: 483 ng/g | TGI (HCC2302 [20]): Active | Activity [21]: Non-Toxic | TGI (HCC2302 [22]): inactive | Activity (HCC2302 [23]): Active | Activity (Mus musculus [24]): 81% | Activity (Mus musculus [25]): 99% | Activity (Mus musculus [26]): 97% | Activity (Mus musculus [27]): 30% | Activity (Mus musculus [28]): 47% | Activity (Mus musculus [29]): 84% | Activity (HCC2302 [30]): 25% | Activity (HCC2302 [31]): 71% | Activity (HCC2302 [32]): 72% | Activity (HCC2302 [33]): 91% | Activity (HCC2302 [34]): 98% | Activity (HCC2302 [35]): 97% | inhibition in vivo at 10 mg/kg (HCC2302 [36]): 1% | inhibition in vivo at 20 mg/kg (HCC2302 [37]): 62% | inhibition in vivo at 30 mg/kg (HCC2302 [38]): > 65%
